Measured values from ChEMBL document CHEMBL1201862, “PubChem BioAssay data set” (2004).
Activity calls are given as the source filed them.

Experiments:
[1] = biological target: G-protein coupled receptor 35 (Homo sapiens, UniProt Q9HC97); experiment: inhibition of zaprinast-stimulated GPR35 beta-arrestin translocation – imaging, U2OS, beta-arrestin-GFP, zaprinast agonist, primary screen (AID 2058); assay type: functional;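 note: antagonist potency meaning inhibition of agonist-induced arrestin redistribution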
Sequence of G-protein coupled receptor 35 (Q9HC97 whole entry): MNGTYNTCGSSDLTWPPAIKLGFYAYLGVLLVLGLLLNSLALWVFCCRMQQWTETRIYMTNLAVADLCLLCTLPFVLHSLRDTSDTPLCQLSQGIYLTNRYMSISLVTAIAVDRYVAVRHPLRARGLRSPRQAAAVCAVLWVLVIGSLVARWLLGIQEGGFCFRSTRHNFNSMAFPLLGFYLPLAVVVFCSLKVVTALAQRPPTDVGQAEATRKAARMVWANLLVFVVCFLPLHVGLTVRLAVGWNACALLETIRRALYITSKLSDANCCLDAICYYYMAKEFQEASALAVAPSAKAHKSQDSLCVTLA

Beta-lactamase [2] = biological target: Beta-lactamase (Pseudomonas aeruginosa, UniProt Q79MP6);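 note: biochemical dose-response test of metallo-beta-lactamase enzyme inhibition, read out by epi-absorbance; purified recombinant IMP-1 metallo-beta-lactamase with nitrocefin as substrate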
Sequence of Beta-lactamase (Pseudomonas aeruginosa, UniProt Q79MP6) (Q79MP6 whole entry): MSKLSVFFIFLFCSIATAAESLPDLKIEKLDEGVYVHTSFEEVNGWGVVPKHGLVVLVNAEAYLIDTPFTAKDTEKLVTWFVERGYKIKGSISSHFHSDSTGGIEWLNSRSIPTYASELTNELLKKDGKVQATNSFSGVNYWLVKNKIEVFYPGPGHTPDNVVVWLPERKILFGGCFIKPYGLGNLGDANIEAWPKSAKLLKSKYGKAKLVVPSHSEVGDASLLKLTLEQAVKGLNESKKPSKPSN

Beta-lactamase [3] = biological target: Beta-lactamase (Salmonella choleraesuis (strain SC-B67), UniProt Q5J463)
Sequence of Beta-lactamase (Salmonella choleraesuis (strain SC-B67), UniProt Q5J463) (Q5J463 whole entry): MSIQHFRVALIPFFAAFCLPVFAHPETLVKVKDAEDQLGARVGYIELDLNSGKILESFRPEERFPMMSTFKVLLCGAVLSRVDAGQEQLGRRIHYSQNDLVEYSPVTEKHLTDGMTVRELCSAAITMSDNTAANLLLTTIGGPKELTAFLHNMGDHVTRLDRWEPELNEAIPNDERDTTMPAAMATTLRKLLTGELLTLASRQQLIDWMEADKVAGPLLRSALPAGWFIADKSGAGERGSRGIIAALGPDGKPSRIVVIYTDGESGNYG

Keap1/Nrf2 = Keap1/Nrf2 (Homo sapiens, UniProt Q14145); experiment: disruptors of Keap1 binding to Nrf2 peptide – biochemical, fluorescence polarization, cherry-picked samples, dose response (AID 588683)
Sequence of Keap1/Nrf2 (Q16236 whole entry): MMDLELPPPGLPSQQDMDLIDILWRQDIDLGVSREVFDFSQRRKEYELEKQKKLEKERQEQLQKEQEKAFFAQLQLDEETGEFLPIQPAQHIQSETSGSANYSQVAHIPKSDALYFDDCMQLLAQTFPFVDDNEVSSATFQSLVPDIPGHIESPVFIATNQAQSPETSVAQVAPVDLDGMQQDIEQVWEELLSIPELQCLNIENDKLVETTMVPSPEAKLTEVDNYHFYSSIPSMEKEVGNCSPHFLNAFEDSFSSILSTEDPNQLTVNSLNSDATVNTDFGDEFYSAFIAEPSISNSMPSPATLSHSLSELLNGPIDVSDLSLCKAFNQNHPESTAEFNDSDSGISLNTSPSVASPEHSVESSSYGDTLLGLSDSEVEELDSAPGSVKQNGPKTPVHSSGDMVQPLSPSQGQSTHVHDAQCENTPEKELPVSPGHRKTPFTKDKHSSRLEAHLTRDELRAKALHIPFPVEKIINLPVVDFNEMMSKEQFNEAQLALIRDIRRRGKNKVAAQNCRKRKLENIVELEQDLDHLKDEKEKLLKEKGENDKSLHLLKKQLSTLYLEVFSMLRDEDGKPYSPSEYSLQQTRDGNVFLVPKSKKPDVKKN
Sequence of Keap1/Nrf2 (Q14145 whole entry): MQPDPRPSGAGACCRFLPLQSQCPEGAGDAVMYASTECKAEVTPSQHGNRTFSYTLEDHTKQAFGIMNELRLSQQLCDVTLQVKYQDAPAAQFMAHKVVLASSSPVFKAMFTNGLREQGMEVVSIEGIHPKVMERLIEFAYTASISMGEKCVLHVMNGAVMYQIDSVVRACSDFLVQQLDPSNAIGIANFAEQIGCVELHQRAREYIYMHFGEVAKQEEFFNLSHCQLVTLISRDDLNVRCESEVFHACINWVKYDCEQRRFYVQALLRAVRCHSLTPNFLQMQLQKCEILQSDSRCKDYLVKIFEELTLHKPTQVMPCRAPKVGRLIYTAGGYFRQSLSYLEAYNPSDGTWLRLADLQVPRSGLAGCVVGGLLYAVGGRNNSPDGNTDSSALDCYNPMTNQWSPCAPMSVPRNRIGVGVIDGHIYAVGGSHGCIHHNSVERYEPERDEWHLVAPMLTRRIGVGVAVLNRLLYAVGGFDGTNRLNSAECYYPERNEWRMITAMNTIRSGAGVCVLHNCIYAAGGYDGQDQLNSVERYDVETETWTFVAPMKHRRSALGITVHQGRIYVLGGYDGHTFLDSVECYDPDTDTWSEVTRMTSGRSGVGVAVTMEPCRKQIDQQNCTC

HEK293 = experiment: Fluorescence-based counterscreen for potentiators or agonists of NPY-Y2: cell-based high-throughput dose response assay to identify inhibitors of cyclic nucleotide gated ion channel (CNGC) activity. In this assay, the parental HEK293 cell line transfected with a cyclic-nucleotide gated ion channel (CNGC)-based cAMP sensor is used to measure inhibition of isoproterenol-induced CNGC activity by test compound.; assay type: functional; conditions: Homo sapiens;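 note: stimulus is 1 µM isoproterenol at EC100 plus PDE inhibitor Ro 20-1724 at 25 µM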
[4] = biological target: T1, Neuropeptide Y receptor type 2 (Homo sapiens, UniProt P49146); experiment: Fluorescence-based cell-based high-throughput dose response assay for agonists of NPY-Y2. [Related pubchem assays: 1703 (Screening assay (CNGC inhibitors).), 1359 (Screening assay (NPY-Y2 potentiators or agonists).), 1304 (Screening assay (NPY-Y1 potentiators or agonists).), 1710 (Screening assay (NPY-Y2 agonists).), 1791 (Summary AID.)]; assay type: functional
T1 sequence (P49146 whole entry): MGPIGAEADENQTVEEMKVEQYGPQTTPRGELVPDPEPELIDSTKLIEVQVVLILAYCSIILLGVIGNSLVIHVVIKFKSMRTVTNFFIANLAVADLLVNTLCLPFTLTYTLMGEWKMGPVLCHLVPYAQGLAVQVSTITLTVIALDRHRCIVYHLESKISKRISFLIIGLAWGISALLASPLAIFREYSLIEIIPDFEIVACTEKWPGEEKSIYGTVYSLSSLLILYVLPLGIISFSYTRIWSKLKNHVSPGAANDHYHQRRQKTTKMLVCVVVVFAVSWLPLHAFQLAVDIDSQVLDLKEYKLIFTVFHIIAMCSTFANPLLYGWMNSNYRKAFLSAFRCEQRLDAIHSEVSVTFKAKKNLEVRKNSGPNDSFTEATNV

[5] = Trypanosoma cruzi growth suppression in host cells – NIH3T3 host cells, beta-gal luminescence, confirmation (AID 2044); assay type: functional, cell-based;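 note: intracellular parasites grown in NIH/3T3 mouse fibroblasts as host cells; luminescent beta-galactosidase reporter signal from transgenic T. cruzi replicating inside host cells; inhibitors lower the luminescence signal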
[6] = biological target: T2, Neuropeptide Y receptor type 1 (Homo sapiens, UniProt P25929); experiment: Fluorescence-based counterscreen for agonists of NPY-Y2: cell-based high-throughput dose response assay for agonists of NPY-Y1.; assay type: functional
T2 sequence (P25929 whole entry): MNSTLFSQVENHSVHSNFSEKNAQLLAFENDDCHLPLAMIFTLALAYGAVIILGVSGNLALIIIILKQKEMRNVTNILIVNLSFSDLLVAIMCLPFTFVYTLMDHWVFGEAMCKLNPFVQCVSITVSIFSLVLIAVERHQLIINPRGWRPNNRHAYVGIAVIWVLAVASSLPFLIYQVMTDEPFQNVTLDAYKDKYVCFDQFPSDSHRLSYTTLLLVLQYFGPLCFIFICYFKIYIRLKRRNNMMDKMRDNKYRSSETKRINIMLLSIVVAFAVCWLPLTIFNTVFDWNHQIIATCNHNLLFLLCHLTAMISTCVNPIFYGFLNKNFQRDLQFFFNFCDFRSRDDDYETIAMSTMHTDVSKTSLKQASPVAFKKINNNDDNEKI

[7] = NIH3T3 cell viability loss – ATP luminescence, mouse fibroblasts, counter-screen, dose response (AID 2010); assay type: functional, cell-based;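 note: cells exposed to compound for about 90 hours before reading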
[8] = viability loss in THP-1 monocytes – THP-1 cells, cytotoxicity control for Vif-APOBEC3G degradation inhibitor project, dose response (AID 1117359); assay type: functional; conditions: THP-1
[9] = HIV-1 Vif–A3G interaction blockers – biochemical, TR-FRET, GST-Vif 1-94, biotin-A3G peptide, dose response retest, primary screen (AID 1117319); assay type: functional;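 note: TR-FRET signal of purified GST-Vif binding a biotinylated A3G peptide; inhibitors lower the FRET signal by blocking Vif and A3G binding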
[10] = biological target: Lysosomal acid glucosylceramidase (Homo sapiens, UniProt P04062); experiment: Dose response cell-based high throughput screening assay to identify enhancers of beta-glucosidase activity. [Related pubchem assays: 784 ]; assay type: functional
Sequence of Lysosomal acid glucosylceramidase (P04062 whole entry): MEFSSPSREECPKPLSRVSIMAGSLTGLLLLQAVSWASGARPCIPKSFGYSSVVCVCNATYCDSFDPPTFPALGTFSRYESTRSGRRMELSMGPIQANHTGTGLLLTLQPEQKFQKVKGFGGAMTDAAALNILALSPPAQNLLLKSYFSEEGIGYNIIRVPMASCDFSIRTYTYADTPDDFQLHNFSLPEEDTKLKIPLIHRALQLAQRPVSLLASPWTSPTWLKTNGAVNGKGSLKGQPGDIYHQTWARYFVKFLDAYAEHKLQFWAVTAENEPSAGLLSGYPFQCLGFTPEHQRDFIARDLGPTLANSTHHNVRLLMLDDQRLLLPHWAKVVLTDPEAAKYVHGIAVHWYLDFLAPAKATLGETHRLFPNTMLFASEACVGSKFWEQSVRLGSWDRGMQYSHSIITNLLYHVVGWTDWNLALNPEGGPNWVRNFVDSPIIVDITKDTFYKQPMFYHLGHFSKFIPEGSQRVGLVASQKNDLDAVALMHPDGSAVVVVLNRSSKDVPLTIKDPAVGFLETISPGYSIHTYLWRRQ

Cytochrome P450 2C19 = Cytochrome P450 2C19 (Homo sapiens, UniProt P33261); experiment: Cytochrome panel assay with activity outcomes. Panel member name: p450-cyp2c19 Compounds with AC50 equal or less than 10 uM are considered active; assay type: functional
Sequence of Cytochrome P450 2C19 (P33261 whole entry): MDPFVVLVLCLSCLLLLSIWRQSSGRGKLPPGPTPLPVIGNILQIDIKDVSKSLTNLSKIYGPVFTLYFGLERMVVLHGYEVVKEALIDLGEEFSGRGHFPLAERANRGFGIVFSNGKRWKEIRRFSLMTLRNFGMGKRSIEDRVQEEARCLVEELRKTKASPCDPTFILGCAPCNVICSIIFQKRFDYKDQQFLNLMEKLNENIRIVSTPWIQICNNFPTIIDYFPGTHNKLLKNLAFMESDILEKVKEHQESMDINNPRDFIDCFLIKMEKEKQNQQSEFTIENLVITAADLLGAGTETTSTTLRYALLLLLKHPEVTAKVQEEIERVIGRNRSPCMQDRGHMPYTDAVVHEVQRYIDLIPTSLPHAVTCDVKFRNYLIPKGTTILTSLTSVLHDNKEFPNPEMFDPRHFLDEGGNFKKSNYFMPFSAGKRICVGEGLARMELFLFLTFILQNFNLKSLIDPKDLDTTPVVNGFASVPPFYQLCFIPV

Cytochrome P450 2D6 = Cytochrome P450 2D6 (Homo sapiens, UniProt P10635);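 note: CYP2D6 member of a cytochrome P450 panel assay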
Sequence of Cytochrome P450 2D6 (P10635 whole entry): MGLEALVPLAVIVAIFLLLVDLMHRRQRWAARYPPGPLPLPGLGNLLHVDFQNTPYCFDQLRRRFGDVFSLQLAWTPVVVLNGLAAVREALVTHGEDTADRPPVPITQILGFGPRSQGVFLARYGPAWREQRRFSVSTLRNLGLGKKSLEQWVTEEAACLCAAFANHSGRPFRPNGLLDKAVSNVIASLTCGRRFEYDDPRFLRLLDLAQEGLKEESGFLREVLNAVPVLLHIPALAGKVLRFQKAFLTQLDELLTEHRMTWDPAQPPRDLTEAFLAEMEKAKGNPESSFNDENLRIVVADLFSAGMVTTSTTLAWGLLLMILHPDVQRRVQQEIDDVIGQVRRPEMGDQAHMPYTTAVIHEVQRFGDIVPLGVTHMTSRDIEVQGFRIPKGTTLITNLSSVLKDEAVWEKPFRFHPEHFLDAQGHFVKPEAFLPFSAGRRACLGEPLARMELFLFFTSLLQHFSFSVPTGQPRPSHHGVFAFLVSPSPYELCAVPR

Cytochrome P450 2C9 = Cytochrome P450 2C9 (Homo sapiens, UniProt P11712)
Sequence of Cytochrome P450 2C9 (P11712 whole entry): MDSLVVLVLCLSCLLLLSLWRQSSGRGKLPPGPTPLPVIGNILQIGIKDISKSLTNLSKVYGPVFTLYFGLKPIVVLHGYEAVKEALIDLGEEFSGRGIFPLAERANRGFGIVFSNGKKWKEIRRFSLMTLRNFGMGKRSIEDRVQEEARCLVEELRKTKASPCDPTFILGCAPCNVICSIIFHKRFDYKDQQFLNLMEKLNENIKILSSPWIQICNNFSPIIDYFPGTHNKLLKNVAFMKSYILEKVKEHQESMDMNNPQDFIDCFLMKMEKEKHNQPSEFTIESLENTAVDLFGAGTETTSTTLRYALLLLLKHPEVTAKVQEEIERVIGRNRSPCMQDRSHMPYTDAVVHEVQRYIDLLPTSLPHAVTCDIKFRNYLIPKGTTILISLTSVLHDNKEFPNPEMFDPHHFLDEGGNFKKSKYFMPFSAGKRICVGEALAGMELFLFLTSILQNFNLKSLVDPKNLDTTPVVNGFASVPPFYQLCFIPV

[11] = biological target: Glucose-6-phosphate 1-dehydrogenase (Homo sapiens, UniProt P11413); experiment: inhibition of Homo sapiens G6PD, dose series – biochemical, fluorescence, selectivity assay for P. falciparum G6PD inhibitor project, dose response (AID 504792); assay type: functional
HeLa = experiment: viability loss in HeLa cells – cell-based, 24 h, cherry-picked samples, cytotoxicity control, dose response (AID 504726); assay type: functional; conditions: Homo sapiens;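 note: potency for cytotoxicity as loss of luminescence signal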
ORF 73 = ORF 73 (Human herpesvirus 8, UniProt O40947); experiment: KSHV LANA DNA-binding disruption – biochemical, fluorescence polarization, cherry-picked samples, dose response (AID 504725); set-up: species or system Human gammaherpesvirus 8;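 note: fluorescence polarization of a labeled DNA duplex reporting LANA DNA binding; potency is for inhibitors that block LANA binding to the DNA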
Troponin, cardiac muscle = Troponin, cardiac muscle (Homo sapiens, UniProt P19429+P45379+P63316); experiment: compounds desensitizing RTF to calcium – biochemical, fluorescence, cardiac regulated thin filaments, triplicate IC50, dose response (AID 504742); assay type: protein-complex assay
Genome polyprotein = Genome polyprotein (dengue virus type 2, UniProt P29990); experiment: flavivirus cap methylation enzyme inhibition – biochemical, confirmation dose response, primary screen (AID 588689); assay type: functional
Sequence of Genome polyprotein (P29990 2492-3391 limits assumed): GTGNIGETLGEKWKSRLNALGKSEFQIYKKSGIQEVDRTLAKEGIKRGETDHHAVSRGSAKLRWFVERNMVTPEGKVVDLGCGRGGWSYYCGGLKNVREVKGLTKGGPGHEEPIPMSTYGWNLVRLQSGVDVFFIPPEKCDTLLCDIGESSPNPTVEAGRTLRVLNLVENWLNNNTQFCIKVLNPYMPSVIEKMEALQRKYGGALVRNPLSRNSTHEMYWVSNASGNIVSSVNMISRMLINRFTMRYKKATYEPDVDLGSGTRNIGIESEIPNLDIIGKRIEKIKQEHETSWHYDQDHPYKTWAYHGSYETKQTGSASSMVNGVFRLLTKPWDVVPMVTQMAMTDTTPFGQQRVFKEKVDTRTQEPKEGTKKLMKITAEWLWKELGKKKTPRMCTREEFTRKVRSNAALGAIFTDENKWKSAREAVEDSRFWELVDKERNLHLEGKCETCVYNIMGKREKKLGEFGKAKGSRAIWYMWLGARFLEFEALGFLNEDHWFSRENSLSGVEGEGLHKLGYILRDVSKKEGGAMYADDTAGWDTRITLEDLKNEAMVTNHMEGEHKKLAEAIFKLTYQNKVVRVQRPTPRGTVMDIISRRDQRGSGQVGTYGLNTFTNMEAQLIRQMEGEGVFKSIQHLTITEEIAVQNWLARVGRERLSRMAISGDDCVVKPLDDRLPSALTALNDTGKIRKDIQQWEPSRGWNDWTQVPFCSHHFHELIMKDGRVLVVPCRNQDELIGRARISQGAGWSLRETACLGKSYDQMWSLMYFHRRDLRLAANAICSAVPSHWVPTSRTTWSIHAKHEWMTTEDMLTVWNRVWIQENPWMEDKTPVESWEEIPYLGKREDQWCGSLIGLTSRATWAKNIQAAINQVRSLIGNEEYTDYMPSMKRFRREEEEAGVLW

[12] = biological target: Metabotropic glutamate receptor 4 (Rattus norvegicus, UniProt P31423); experiment: Modulation of the Metabotropic Glutamate Receptor mGluR4: Rat PAM Potency. [Related pubchem assays (depositor defined):AID2437, AID2807]; assay type: functional

For `O=c1cc(C(F)(F)F)c2cc3c4c(c2o1)CCCN4CCC3`, the IC50 [1] was 1.37 µM (active), the IC50 (Beta-lactamase [2]) was 78.2 µM (inactive) and the IC50 (Beta-lactamase [3]) was 5.57 µM (active). The AC50 (Keap1/Nrf2) was 2.8 µM (active).
With `COc1ccc(NC(=O)c2c(OC)cccc2OC)c(OC)c1` the EC50 (HEK293) was > 35.4 µM (not active), the EC50 [4] was > 35.4 µM (not active) and the EC50 [5] was 3.06 µM (active). The EC50 [6] was > 35.4 µM (not active), the EC50 [7] was > 60 µM (not active) and the CC50 [8] was > 40 µM (active). The IC50 [9] was > 60.5 µM (active).
For `Br.Brc1ccc(C2=Nn3c(nnc3-c3cccnc3)SC2)s1`, the EC50 [10] was > 50 µM (not active), the AC50 (Cytochrome P450 2C19) was “inconclusive” and the AC50 (Cytochrome P450 2D6) was 4.47 µM (inconclusive). The AC50 (Cytochrome P450 2C9) was 22.4 µM (inconclusive).
With `O=C1C=CC2=C3c4cc(O)c(O)cc4CC3(O)COC2=C1O` (stereo unspecified) the IC50 [11] was > 80 µM (inactive), the AC50 (HeLa) was 179 µM (active) and the AC50 (ORF 73) was 40.3 µM (active). The IC50 (Troponin, cardiac muscle) was 16.6 µM (inactive) and the IC50 (Genome polyprotein) was 26.5 µM (active).
With `O=C(Nc1ccc(N2C(=O)[C@H]3CCCC[C@@H]3C2=O)c(Cl)c1)c1ccccn1` the EC50 [12] was 0.65 µM (active).
